Experimental data taken from patent publication US20240262795A1, “PYRAZINE COMPOUNDS AS INHIBITORS OF FLT3” (Biomea Fusion, Inc., priority 2021, published 2024).
Numbering of substitutions follows the chain as printed.

Legend:
[1] = target: T1, Ba/F3 cell lines stably expressing human FLT3-ITD-D835Y (Homo sapiens, UniProt P36888, D835Y, cells depend on it, form not given); test: FLT3 mutant assay, cell viability, Ba/F3-FLT3-ITD-D835Y; format: cell-based, mouse; conditions: IC50 (3 days), CellTiter-Glo; read-out: Ba/F3-FLT3-ITD-D835Y Relative IC50
T1 construct: Ba/F3-FLT3-ITD-D835Y Relative IC50
T1 sequence (P36888 1-993 D835Y): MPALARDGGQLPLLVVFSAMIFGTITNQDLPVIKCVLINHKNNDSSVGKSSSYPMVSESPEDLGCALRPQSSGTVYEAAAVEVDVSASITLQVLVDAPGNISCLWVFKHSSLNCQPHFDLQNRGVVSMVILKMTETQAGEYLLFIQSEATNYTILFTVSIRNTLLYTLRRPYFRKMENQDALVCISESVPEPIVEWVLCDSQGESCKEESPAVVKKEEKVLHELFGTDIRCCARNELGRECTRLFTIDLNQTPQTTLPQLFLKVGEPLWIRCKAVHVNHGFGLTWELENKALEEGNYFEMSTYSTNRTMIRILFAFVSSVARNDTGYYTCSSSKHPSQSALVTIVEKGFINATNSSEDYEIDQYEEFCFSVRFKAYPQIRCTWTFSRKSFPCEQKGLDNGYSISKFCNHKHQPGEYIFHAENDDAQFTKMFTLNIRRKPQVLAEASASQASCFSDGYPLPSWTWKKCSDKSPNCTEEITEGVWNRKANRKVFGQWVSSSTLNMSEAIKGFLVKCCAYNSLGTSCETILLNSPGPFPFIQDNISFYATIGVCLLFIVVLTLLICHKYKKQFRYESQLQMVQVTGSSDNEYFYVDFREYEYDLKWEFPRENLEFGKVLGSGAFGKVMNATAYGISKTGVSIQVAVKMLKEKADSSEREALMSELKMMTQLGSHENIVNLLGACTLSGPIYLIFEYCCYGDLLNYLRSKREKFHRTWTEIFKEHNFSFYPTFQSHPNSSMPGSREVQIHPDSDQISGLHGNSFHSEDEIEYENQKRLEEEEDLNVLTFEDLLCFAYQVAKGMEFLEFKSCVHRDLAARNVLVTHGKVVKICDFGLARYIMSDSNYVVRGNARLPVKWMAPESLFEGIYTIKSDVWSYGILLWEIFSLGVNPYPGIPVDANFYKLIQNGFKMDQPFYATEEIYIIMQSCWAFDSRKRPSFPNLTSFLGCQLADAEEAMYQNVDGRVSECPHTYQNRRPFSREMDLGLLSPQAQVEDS
Description: (§1) Activity of compounds on FLT3 activating mutations were assessed using Ba/F3 cell lines (mouse pro-B cell line) stably expressing human FLT3-ITD, FLT3-ITD-D835Y or FLT3-ITD-F691L. […] The supernatant collected were concentrated with PEG8000 and used to infect Ba/F3 cells at 1-5 MOI in serum-free media with polybrene. Infected Ba/F3 cells were selected in presence of puromycin, and surviving cells verified by sequencing and/or protein detection assay. Constitutive expression of the activating kinase transforms the Ba/F3 cells into IL-3-independent growth allowing them to be cultured in the absence of IL-3. […] For use in compound testing, cells in exponential growth phase were harvested, counted, and resuspended at the required cell density. Cell viability assays were performed in 96-well assay plates and 90 μL of cell suspension seeded per well. Serial dilutions of the test compounds and assay controls and were freshly prepared for the assay. Nine-point 3× serial dilutions were prepared in 100% DMSO (400× stock) and subsequently diluted in cell culture media to obtain 10× stocks. Ten microliters of the 10× stock serial dilutions were added to the appropriate wells (triplicate wells per condition) in the assay plate. […] Assay plates were incubated for 3 days in at 37° C. in a humidified incubator with 5% CO2.
(§2) Inhibition rate (IR) of the tested compounds was determined by the following formula: IR (%)=(1−(RLU compound−RLU blank)/(RLU control−RLU blank))*100%. The inhibitions of different dose of compound were calculated in Excel file, and the dose responses were analysed using GraphPad Prism to evaluate related parameters, such as Bottom, Top and IC50. For the IC50 analysis by GraphPad Prism, the equation below was used to fit curve: Y=Bottom+(Top−Bottom)/(1+10^((LogIC50−X)*HillSlope))

[2] = target: T2, Ba/F3 cell lines stably expressing human FLT3-ITD (Homo sapiens, UniProt P36888, cells depend on it, form not given); test: FLT3 mutant assay, cell viability, Ba/F3-FLT3-ITD; format: cell-based, mouse; conditions: IC50 (3 days), CellTiter-Glo; read-out: Ba/F3-FLT3-ITD Relative IC50
T2 sequence (P36888 1-993): T1 sequence (P36888 1-993 D835Y) with Y835D
Description: as §1, §2

| SMILES | GI50 [1] | GI50 [2] |
| --- | --- | --- |
| CCc1nc(C(N)=O)c(Nc2cccc(CCNC(=O)CN(C)C(=O)/C=C/CN3CCC3)c2)nc1OC(C)C [Compound 603, (E)-3-((3-(2-(2-(4-(azetidin-1-yl)-N-methylbut-2-enamido)acetamido)ethyl)phenyl)amino)-6-ethyl-5-isopropoxypyrazine-2-carboxamide] | 10 to 100 nM | 1 to 10 nM |
| Cc1nc(C(N)=O)c(Nc2cccc(CCNC(=O)[C@H](C)N(C)C(=O)/C=C/CN(C)C)c2)nc1N(C)C(C)C [Compound 232, (S, E)-3-((3-(2-(2-(4-(dimethylamino)-N-methylbut-2-enamido)propanamido)ethyl)phenyl)amino)-5-(isopropyl (methyl)amino)-6-methylpyrazine-2-carboxamide] | 10 to 100 nM | 1 to 10 nM |
| CCc1nc(C(N)=O)c(Nc2cccc(CCNC(=O)CN(C)C(=O)/C=C/CN(C)C)c2)nc1C1CC1 [Compound 219, (E)-5-cyclopropyl-3-((3-(2-(2-(4-(dimethylamino)-N-methylbut-2-enamido)acetamido)ethyl)phenyl)amino)-6-ethylpyrazine-2-carboxamide] | 10 to 100 nM | 1 to 10 nM |
| CCc1nc(C(N)=O)c(Nc2cccc([C@@H](C)CNC(=O)CN(C)C(=O)/C=C/CN(C)C)c2)nc1C1CC1 [Compound 504, (R,E)-5-cyclopropyl-3-((3-(1-(2-(4-(dimethylamino)-N-methylbut-2-enamido)acetamido)propan-2-yl)phenyl)amino)-6-ethylpyrazine-2-carboxamide] | 10 to 100 nM | 1 to 10 nM |
